# Source: ChEMBL document CHEMBL4390699, “Design, synthesis and biological evaluation of novel antitumor spirodihydrothiopyran-oxindole derivatives” (Bioorg Med Chem Lett, 2019)
# Assays:
# HCT-116 [1] = test: Antiproliferative activity against human HCT116 cells measured after 24 hrs by CCK8 assay; type: functional, cell-based; settings: HCT-116, 24 h
# MCF7 [2] = test: Antiproliferative activity against human MCF7 cells assessed as inhibition of cell growth at 10 uM measured after 24 hrs by CCK8 assay relative to control; type: functional; settings: MCF7, 24 h, read-out: GI
# HCT-116 [3] = test: Antiproliferative activity against human HCT116 cells assessed as inhibition of cell growth at 10 uM measured after 24 hrs by CCK8 assay relative to control; type: functional; settings: HCT-116, 24 h, read-out: GI
# A549 [4] = test: Antiproliferative activity against human A549 cells assessed as inhibition of cell growth at 10 uM measured after 24 hrs by CCK8 assay relative to control; type: functional; settings: A549, 24 h, read-out: GI
# A549 [5] = test: Antiproliferative activity against human A549 cells measured after 24 hrs by CCK8 assay; type: functional, cell-based; settings: A549, 24 h
# MCF7 [6] = test: Antiproliferative activity against human MCF7 cells measured after 24 hrs by CCK8 assay; type: functional, cell-based; settings: MCF7, 24 h
# [7] = target: E3 ubiquitin-protein ligase Mdm2 (Homo sapiens, UniProt Q00987); test: Inhibition of PMDM6-F probe binding to MDM2 (1 to 118 residues) (unknown origin) preincubated for 30 mins followed by PMDM6-F addition and measured after 1 hr fluorescence polarization assay
# Sequence of E3 ubiquitin-protein ligase Mdm2 (Q00987 whole entry, the tested form may be a part): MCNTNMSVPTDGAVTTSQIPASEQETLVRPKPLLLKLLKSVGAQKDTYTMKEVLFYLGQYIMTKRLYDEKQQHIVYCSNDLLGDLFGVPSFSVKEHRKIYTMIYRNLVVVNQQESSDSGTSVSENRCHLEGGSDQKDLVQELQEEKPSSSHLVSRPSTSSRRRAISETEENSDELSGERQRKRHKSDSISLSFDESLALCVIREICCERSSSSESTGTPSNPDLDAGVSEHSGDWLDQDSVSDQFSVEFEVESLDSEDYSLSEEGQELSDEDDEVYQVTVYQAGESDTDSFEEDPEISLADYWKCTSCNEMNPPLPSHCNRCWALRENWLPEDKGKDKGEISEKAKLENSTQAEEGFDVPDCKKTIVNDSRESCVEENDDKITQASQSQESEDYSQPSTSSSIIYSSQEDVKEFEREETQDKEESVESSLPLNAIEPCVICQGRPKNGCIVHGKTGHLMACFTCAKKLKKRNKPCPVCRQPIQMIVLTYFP
# A549 [8] = test: Cell cycle arrest in human A549 cells assessed as decrease in accumulation at S-phase measured after 24 hrs by DNA-staining solution based flow cytometry; type: functional
# A549 [9] = test: cells; settings: Homo sapiens, A549, 48 h, read-out: Activity
# Description: Induction of apoptosis in human A549 cells assessed as viable cells at 5 uM measured after 48 hrs by annexin V-FITC/propidium iodide staining based flow cytometry (Rvb = 92.9%)
# A549 [10] = test: cells; settings: Homo sapiens, A549, 48 h, read-out: Activity; remark: listed apart in the source
# Description: Induction of apoptosis in human A549 cells assessed as viable cells at 10 uM measured after 48 hrs by annexin V-FITC/propidium iodide staining based flow cytometry (Rvb = 92.9%)
# HUVEC = test: Cytotoxicity against HUVEC measured after 24 hrs by CCK8 assay; type: cell-based; settings: Homo sapiens
# A549 [11] = test: Cell cycle arrest in human A549 cells assessed as increase in accumulation at G0/G1-phase measured after 24 hrs by DNA-staining solution based flow cytometry; type: functional
# A549 [12] = test: Cell cycle arrest in human A549 cells assessed as decrease in accumulation at G2/M-phase measured after 24 hrs by DNA-staining solution based flow cytometry; type: functional
SMILES,IC50 (HCT-116 [1]),inhibition of growth at 10 µM (MCF7 [2]),inhibition of growth at 10 µM (HCT-116 [3]),inhibition of growth at 10 µM (A549 [4]),IC50 (A549 [5]),IC50 (MCF7 [6]),Ki [7],Activity (A549 [8]),viability at 5 µM (A549 [9]),viability at 10 µM (A549 [10]),IC50 (HUVEC),Activity (A549 [11]),Activity (A549 [12])
O=C(C1=CC[C@@H](c2ccccc2)[C@@]2(S1)C(=O)Nc1cccc(Cl)c12)c1ccccc1,9.9 µM,43.9%,48.8%,65.4%,9.9 µM,–,–,–,–,–,–,–,–
CC[C@@H]1CC=C(C(=O)c2ccc(OC)cc2)S[C@@]12C(=O)Nc1cccc(Br)c12,–,72.9%,70.8%,46.9%,10.3 µM,13.3 µM,–,–,–,–,–,–,–
O=C(C1=CC[C@@H](c2ccccc2)[C@@]2(S1)C(=O)Nc1cccc(Br)c12)c1ccco1,1.9 µM,92.8%,92.1%,87.1%,4.5 µM,4.8 µM,43.8 µM,–,–,–,–,–,–
O=C(C1=CC[C@@H](c2ccccc2)[C@@]2(S1)C(=O)Nc1ccc(F)cc12)c1ccccc1,9.9 µM,63.9%,88.4%,74.2%,4.3 µM,5.5 µM,–,–,–,–,–,–,–
COc1ccc(C(=O)C2=CC[C@@H](c3ccccc3)[C@@]3(S2)C(=O)Nc2cccc(Br)c23)cc1,8.4 µM,36.9%,68.4%,74.3%,6 µM,–,–,–,–,–,–,–,–
COc1ccc(C(=O)C2=CC[C@@H](c3ccc(OC)cc3)[C@@]3(S2)C(=O)Nc2cccc(Br)c23)cc1,–,25.9%,14.3%,40.9%,–,–,–,–,–,–,–,–,–
COc1ccc(C(=O)C2=CC[C@@H](c3ccc(Br)cc3)[C@@]3(S2)C(=O)Nc2cccc(Br)c23)cc1,–,18.5%,10.8%,19%,–,–,–,–,–,–,–,–,–
O=C(C1=CC[C@@H](c2ccccc2)[C@@]2(S1)C(=O)Nc1ccccc12)c1ccccc1,9.4 µM,51.7%,87.6%,57.6%,6.3 µM,10.7 µM,–,–,–,–,–,–,–
O=C(C1=CC[C@@H](c2ccc(Cl)cc2)[C@@]2(S1)C(=O)Nc1ccccc12)c1ccccc1,2.8 µM,72.5%,89.1%,72.5%,3.9 µM,8.5 µM,–,–,–,–,–,–,–
O=C(C1=CC[C@@H](c2ccc(F)cc2)[C@@]2(S1)C(=O)Nc1cccc(Br)c12)c1ccccc1,–,21.9%,44.1%,84.4%,4.9 µM,–,–,–,–,–,–,–,–
O=C(C1=CC[C@@H](c2ccccc2)[C@@]2(S1)C(=O)Nc1cc(Br)ccc12)c1ccccc1,9.6 µM,54.5%,80%,67.6%,4.8 µM,10.1 µM,–,–,–,–,–,–,–
O=C(C1=CC[C@@H](c2ccccc2)[C@@]2(S1)C(=O)Nc1cccc(Br)c12)c1ccc(Br)cc1,2.6 µM,77.7%,67.3%,93.1%,3.3 µM,8.2 µM,–,–,–,–,–,–,–
O=C(C1=CC[C@@H](c2ccc(Br)cc2)[C@@]2(S1)C(=O)Nc1ccccc12)c1ccccc1,1.7 µM,69.4%,91.9%,75.1%,2.1 µM,6.8 µM,19.8 µM,Dose-dependent effect,35.7%,29%,4.03 µM,Dose-dependent effect,Dose-dependent effect
O=C(C1=CC[C@@H](c2ccccc2)[C@@]2(S1)C(=O)Nc1cccc(Br)c12)c1ccccc1,–,24.3%,45%,78.5%,3.1 µM,–,–,–,–,–,–,–,–
COc1ccc(C(=O)C2=CC[C@@H](c3ccc([N+](=O)[O-])cc3)[C@@]3(S2)C(=O)Nc2cccc(Br)c23)cc1,–,28.1%,48.1%,73.9%,13.9 µM,–,–,–,–,–,–,–,–
O=C(C1=CC[C@@H](c2ccc(F)cc2)[C@@]2(S1)C(=O)Nc1ccccc12)c1ccccc1,2 µM,58.8%,91.1%,72.3%,6.3 µM,14.1 µM,–,–,–,–,–,–,–
COc1ccc(C2=N[C@H](c3ccc(Cl)cc3)[C@H](c3ccc(Cl)cc3)N2C(=O)N2CCNC(=O)C2)c(OC(C)C)c1,–,32.8%,64.4%,47%,2.4 µM,12.1 µM,–,Dose-dependent effect,45.9%,44.1%,–,Dose-dependent effect,–
O=C(C1=CC[C@@H](c2ccccc2)[C@@]2(S1)C(=O)Nc1cc(F)ccc12)c1ccccc1,–,23.9%,45.1%,66%,6.2 µM,–,–,–,–,–,–,–,–
CCC[C@@H]1CC=C(C(=O)c2ccc(OC)cc2)S[C@@]12C(=O)Nc1cccc(Br)c12,–,19.8%,22.7%,44%,–,–,–,–,–,–,–,–,–
O=C(C1=CC[C@@H](c2ccc(Br)cc2)[C@@]2(S1)C(=O)Nc1cccc(Br)c12)c1ccccc1,5.9 µM,52.7%,86%,88.1%,1.5 µM,8.8 µM,–,–,–,–,–,–,–
